The test system of data set [1] is Mycobacterium tuberculosis. In words: Antitubercular activity against Mycobacterium tuberculosis H37Rv measured after 7 days by MABA method. It is filed as functional. The conditions noted are these: 168 h, time 7 day. A general note: Alamar Blue is a resazurin reagent that responds to reducing activity.
Data set [2] addresses T1, Enoyl-[acyl-carrier-protein] reductase [NADH] (Mycobacterium tuberculosis) (UniProt P9WGR1).
T1 sequence (whole entry): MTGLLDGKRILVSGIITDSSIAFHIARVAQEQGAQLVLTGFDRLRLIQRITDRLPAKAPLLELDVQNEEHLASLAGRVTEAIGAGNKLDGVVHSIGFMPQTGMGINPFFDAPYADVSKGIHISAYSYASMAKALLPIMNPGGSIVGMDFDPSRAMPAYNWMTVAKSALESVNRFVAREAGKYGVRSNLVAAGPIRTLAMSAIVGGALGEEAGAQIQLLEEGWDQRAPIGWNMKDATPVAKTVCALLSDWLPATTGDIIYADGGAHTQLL
In words: Inhibition of wild type InhA in Mycobacterium tuberculosis H37Rv using trans-2-dodecenoyl-coenzyme A as substrate at 5 uM.

Data set [3] is described as follows: Cytotoxicity against mouse RAW264.7 cells assessed as decrease cell viability at 50 ug/ml measured after 48 hrs by MTT assay. It is filed as cell-based. The conditions noted are these: at 50 µg/mL, read-out: INH.
The subject of data set [4] is Mycobacterium tuberculosis. In words: Antitubercular activity at Mycobacterium tuberculosis H37Rv in nutrition starved condition medium assessed as log reduction of cell growth at 10 ug/ml measured after 7 days by MPN method. It is filed as functional. Conditions: dose 10 µg/ml; time 7 day.
Data set [5] can be described thus: Solubility of compound in aqueous buffer at pH 6.8. The data set is classed as physicochemical.

Data on 21 compounds can be found in ChEMBL document CHEMBL4765250, “Discovery of hydrazone containing thiadiazoles as Mycobacterium tuberculosis growth and enoyl acyl carrier protein reductase (InhA) inhibitors” (Eur J Med Chem, 2020).

≈ marks a conversion by molar mass, not a printed value.

Turning to `Cc1ccc(/C=N/Nc2nsc(Nc3ccc(Cl)cc3Cl)n2)cc1`, the MIC (usually the lowest concentration found to suppress growth) in data set [1] turned out to be 8.27 µM (≈ 3.13 µg/mL). Besides, the inhibition – broadly, the percentage by which the read-out fell short of the control – in data set [2] was found to be 48%. In addition, in data set [3], the cytotoxicity at 48 h, 50 ug/ml was determined as 33.1%.

In turn, `C(=N\Nc1nsc(Nc2ccccc2)n1)/c1ccccc1` came in with an MIC in data set [1] of more than 84.8 µM.

`Cc1ccc(/C=N/Nc2nsc(Nc3ccc(C)cc3)n2)cc1` returned a minimal inhibitory concentration (MIC) in data set [1] of more than 77.4 µM.

Turning to `O=[N+]([O-])c1ccc(Nc2nc(N/N=C/c3ccccc3)ns2)cc1`, the lowest concentration to inhibit growth in data set [1] (MIC) was 73.5 µM (≈ 25 µg/mL).

`FC(F)(F)c1ccc(Nc2nc(N/N=C/c3ccccc3)ns2)cc1` showed an MIC in data set [1] of 34.4 µM (≈ 12.5 µg/mL). Compared with the last compound, the MIC is about 2.1-fold lower.

Compound `COc1ccc(Nc2nc(N/N=C/c3ccccc3)ns2)cc1` returned an MIC in data set [1] of 2.4 µM (≈ 0.781 µg/mL). Also, the FC in data set [4] amounted to 2.2. Also, the cytotoxicity at 48 h, 50 ug/ml in data set [3] was 24.6%.

In turn, `COc1ccc(Nc2nc(N/N=C/c3ccc(C)cc3)ns2)cc1` had an MIC in data set [1] of more than 73.8 µM.

On to `Cc1ccc(/C=N/Nc2nsc(Nc3ccc(F)cc3)n2)cc1`, for which the MIC in data set [1] was more than 76.5 µM. This compound also displayed an inhibition in data set [2] of 26%.

On to `Cc1ccc(/C=N/Nc2nsc(Nc3ccc(I)cc3)n2)cc1`, for which, in data set [1], the MIC was determined as 3.59 µM (≈ 1.56 µg/mL). In addition, in data set [3], the cytotoxicity at 48 h, 50 ug/ml is 21.1%.

Take `Cc1ccc(/C=N/Nc2nsc(Nc3ccccc3)n2)cc1`: in data set [1], the MIC is more than 80.9 µM.

With `Ic1ccc(Nc2nc(N/N=C/c3ccccc3)ns2)cc1`, the lowest concentration to inhibit growth in data set [1] (MIC) was 59.4 µM (≈ 25 µg/mL). Besides, the solubility entry in data set [5] is “Insoluble”.

As to `Cc1ccc(/C=N/Nc2nsc(Nc3ccc(C(F)(F)F)cc3)n2)cc1`, the MIC in data set [1] was determined as 16.6 µM (≈ 6.26 µg/mL). This compound had an inhibition in data set [2] of 35%. The cytotoxicity at 48 h, 50 ug/ml in data set [3] turned out to be 29.1%.

As for `Cc1ccc(/C=N/Nc2nsc(Nc3ccc(Br)cc3)n2)cc1`, in data set [1], the MIC was more than 64.4 µM.

`Cc1ccc(Nc2nc(N/N=C/c3ccccc3)ns2)cc1`: in data set [1], the MIC was 2.52 µM (≈ 0.78 µg/mL). In data set [2], the inhibition stood at 48%. In addition, the FC in data set [4] amounted to 2.4. Besides, the cytotoxicity at 48 h, 50 ug/ml in data set [3] stood at 31.5%.

In the case of `Cc1ccc(/C=N/Nc2nsc(Nc3ccc([N+](=O)[O-])cc3)n2)cc1`, the MIC in data set [1] was more than 70.6 µM.

With `Clc1ccc(Nc2nc(N/N=C/c3ccccc3)ns2)c(Cl)c1`, the MIC in data set [1] worked out at 4.29 µM (≈ 1.56 µg/mL).

In turn, `Fc1ccc(Nc2nc(N/N=C/c3ccccc3)ns2)cc1` returned an MIC in data set [1] of more than 79.9 µM.

For `NNC(=O)c1ccncc1` [ISONIAZID], the MIC in data set [1] came to 0.36 µM (≈ 0.0494 µg/mL). Besides, the FC in data set [4] is 1.4.

For the compound `CO[C@H]1/C=C/O[C@@]2(C)Oc3c(C)c(O)c4c(O)c(c(/C=N/N5CCN(C)CC5)c(O)c4c3C2=O)NC(=O)/C(C)=C\C=C\[C@H](C)[C@H](O)[C@@H](C)[C@@H](O)[C@@H](C)[C@H](OC(C)=O)[C@@H]1C` [RIFAMPIN], the MIC in data set [1] was 0.12 µM (≈ 0.0988 µg/mL). Further, in data set [4], the FC is 1.6.

In the case of `Brc1ccc(Nc2nc(N/N=C/c3ccccc3)ns2)cc1`, in data set [1], the MIC is 4.17 µM (≈ 1.56 µg/mL). In data set [2], this compound had an inhibition of 39%. Further, in data set [3], the cytotoxicity at 48 h, 50 ug/ml was 25.8%.

With `CC[C@@H](CO)NCCN[C@@H](CC)CO` [ETHAMBUTOL], in data set [1], the minimal inhibitory concentration (MIC) came to 7.6 µM (≈ 1.55 µg/mL).
